According to publication PMC9079959, “Substituted spirooxindole derivatives as potent anticancer agents through inhibition of phosphodiesterase 1” (RSC Advances, 2018):
Read-outs that look alike come from different tables or passages of the source.

What was measured:
[1] = tested on: HCT-116 cells; assay: MTT cytotoxicity assay, colorectal cancer cell line HCT-116; format: cell-based; conditions: for SI (selectivity index): IC50 normal (VERO-B) / IC50 cancer (HCT-116)
Description: (§1) The cytotoxic activity of the compounds was tested against different mammalian cancer cells, prostate carcinoma cells (PC-3), hepatocellular carcinoma (HepG2) and colon cancer cells (HCT-116). African green monkey kidney cells (Vero-B) were used as normal cells to study the selectivity towards the cancer cells. The cell lines were obtained from the American Type Culture Collection (ATCC). The cells were cultivated at 37 °C and 10% CO2 in DMEM (Lonza, Germany) medium supplemented with 10% fetal bovine serum (Lonza, Germany), 100 IU ml^−1 penicillin and 100 μg ml^−1 streptomycin (Lonza, Germany). […] The spirooxindole derivatives were solubilized in DMSO and stored at −20 °C. The viability of the cells was quantified using 3-(4,5-dimethylthiazol-2-yl)-2,5-diphenyl tetrazolium bromide (MTT), which measures the activity of mitochondrial succinate dehydrogenase in viable cells.[45,46]
(§2) The cells were seeded in 96-well plates at a concentration of 5 × 10^4 cells per ml (100 μl per well). […] DMSO was used as a negative control (0.1%). The cells were incubated for 48 h. After that, 15 μl of MTT (5 mg ml^−1 in PBS) was added to each well and incubated for another 4 h. The formazan crystals were solubilized by 100 μl of acidified SDS solution (10% SDS/0.01 N HCl in PBS). The absorbance was measured after 14 h of incubation at 37 °C and under 5% CO2 at 570 nm by using a BioTek microplate reader. Each experiment was repeated 3 times and a standard deviation was calculated (SD±). […] The growth of the cells was monitored and the images were acquired by Gx microscopes (GXMGXD202 Inverted Microscope) at 10× magnification.

[2] = tested on: HepG2 cells; assay: MTT cytotoxicity assay, hepatocellular carcinoma HepG2; format: cell-based; conditions: for IC50: Homo sapiens, HepG2; for SI (selectivity index): IC50 normal (VERO-B) / IC50 cancer (HepG2)
Description: as §1, §2

[3] = tested on: PC-3 cells; assay: MTT cytotoxicity assay, prostate cancer cell line PC-3; format: cell-based; conditions: for SI (selectivity index): IC50 normal (VERO-B) / IC50 cancer (PC-3)
Description: as §1, §2

[4] = tested on: Vero-B cells; assay: MTT cytotoxicity assay, normal cells Vero-B; format: cell-based, African green monkey; conditions: 48 h
Description: as §1, §2

[5] = Homo sapiens, HCT-116, MTT, 48 h, ± SD of 3 experiments, read-out: HCT-116 (IC50)
[6] = Homo sapiens, HCT-116, MTT, 48 h, read-out: HCT-116 (IC50, μg ml^−1)
[7] = MTT, 48 h, ± SD of 3 experiments, read-out: HepG2 (IC50)
[8] = MTT, 48 h, read-out: HepG2 (IC50, μg ml^−1)
[9] = Homo sapiens, PC-3, MTT, 48 h, ± SD of 3 experiments, read-out: PC-3 (IC50)
[10] = Homo sapiens, PC-3, MTT, 48 h, read-out: PC-3 (IC50, μg ml^−1)

| Structure (SMILES) | HCT-116 (IC50, μg ml^−1) ([1]; MTT, 48 h) | IC50 ([1]; MTT, 48 h, ± SD of 3 experiments, read-out: HCT-116 (IC50)) | HepG2 (IC50, μg ml^−1) ([2]; MTT, 48 h) | PC-3 (IC50, μg ml^−1) ([3]; MTT, 48 h) | IC50 ([3]; MTT, 48 h, ± SD of 3 experiments, read-out: PC-3 (IC50)) | IC50 [4] | IC50 [1, 5] | IC50 [1, 6] | SI (selectivity index) [1] | IC50 [2, 7] | IC50 [2, 8] | SI (selectivity index) [2] | IC50 [3, 9] | IC50 [3, 10] | SI (selectivity index) [3] | IC50 ([4]; Chlorocebus sabaeus, Vero B) | melting point |
| --- | --- | --- | --- | --- | --- | --- | --- | --- | --- | --- | --- | --- | --- | --- | --- | --- | --- |
| N.N.[Cl][Pt][Cl] [Cisplatin, cis-diamineplatinum(II) dichloride, reference compound] | 3.8 µg/mL | 12.6 ± 0.4 µM | 1.7 µg/mL | 1.5 µg/mL | 5 ± 0.45 µM | 5 µM |  |  |  |  |  |  |  |  |  |  |  |
| O=C(c1c[nH]c2ccccc12)[C@@H]1C(c2ccc(Cl)cc2)[C@@H]2CCCN2[C@@]12C(=O)Nc1ccccc12 (stereo partly drawn) [4c, (2′R,3S,7a′S)-1′-(4-Chlorophenyl)-2′-(1H-indole-3-carbonyl)-1′,2′,5′,6′,7′,7a′-hexahydrospiro[indoline-3,3′-pyrrolizin]-2-one] |  |  |  |  |  |  | 20 ± 1.5 µM | 9.6 µg/mL | 1.1 | 8 ± 0.5 µM | 3.8 µg/mL | 2.8 | 11.8 ± 1.3 µM | 5.7 µg/mL | 1.9 | 22 µM | 165 to 167 °C |
| COc1cc(C2[C@@H](C(=O)c3c[nH]c4ccccc34)[C@]3(C(=O)Nc4ccccc43)N3CCC[C@@H]23)cc(OC)c1OC (stereo partly drawn) [4n, (2′R,3S,7a′S)-2′-(1H-Indole-3-carbonyl)-1′-(3,4,5-trimethoxyphenyl)-1′,2′,5′,6′,7′,7a′-hexahydrospiro[indoline-3,3′-pyrrolizin]-2-one] |  |  |  |  |  |  | 20 ± 1.25 µM | 11.1 µg/mL | 2 | 28 ± 2 µM | 15.7 µg/mL | 1.4 | 17 ± 2 µM | 9.4 µg/mL | 2.4 | 40 µM | 179 to 181 °C |
| O=C(c1c[nH]c2ccccc12)[C@@H]1C(c2cccs2)[C@@H]2CCCN2[C@@]12C(=O)Nc1ccccc12 (stereo partly drawn) [4l, (2′R,3S,7a′S)-2′-(1H-Indole-3-carbonyl)-1′-(thiophen-2-yl)-1′,2′,5′,6′,7′,7a′-hexahydrospiro[indoline-3,3′-pyrrolizin]-2-one] |  |  |  |  |  |  | 50 ± 3.5 µM | 22.7 µg/mL | 1.2 | 50 ± 3 µM | 22.7 µg/mL | 1.2 | 29 ± 3 µM | 13 µg/mL | 2.1 | 60 µM | 157 to 159 °C |
| O=C(c1c[nH]c2ccccc12)[C@@H]1C(c2ccco2)[C@@H]2CCCN2[C@@]12C(=O)Nc1ccccc12 (stereo partly drawn) [4m, (2′R,3S,7a′S)-1′-(Furan-2-yl)-2′-(1H-indole-3-carbonyl)-1′,2′,5′,6′,7′,7a′-hexahydrospiro[indoline-3,3′-pyrrolizin]-2-one] |  |  |  |  |  |  | 29 ± 2 µM | 12.7 µg/mL | 1.7 | 40 ± 5 µM | 17.5 µg/mL | 1.3 | 26 ± 1.7 µM | 11.3 µg/mL | 1.9 | 50 µM | 172 to 174 °C |
| O=C(c1c[nH]c2ccccc12)[C@@H]1C(c2cccc(Br)c2)[C@@H]2CCCN2[C@@]12C(=O)Nc1ccccc12 (stereo partly drawn) [4j, (2′R,3S,7a′S)-1′-(3-Bromophenyl)-2′-(1H-indole-3-carbonyl)-1′,2′,5′,6′,7′,7a′-hexahydrospiro[indoline-3,3′-pyrrolizin]-2-one] |  |  |  |  |  |  | 9 ± 0.5 µM | 4.7 µg/mL | 2.2 | 8 ± 1 µM | 4.2 µg/mL | 2.5 | 7 ± 0.2 µM | 3.7 µg/mL |  | 20 µM | 110 to 112 °C |
| O=C(c1c[nH]c2ccccc12)[C@@H]1C(c2ccc(Br)cc2)[C@@H]2CCCN2[C@@]12C(=O)Nc1ccccc12 (stereo partly drawn) [4f, (2′R,3S,7a′S)-1′-(4-Bromophenyl)-2′-(1H-indole-3-carbonyl)-1′,2′,5′,6′,7′,7a′-hexahydrospiro[indoline-3,3′-pyrrolizin]-2-one] |  |  |  |  |  |  | 21 ± 1.3 µM | 11 µg/mL | 1.4 | 12 ± 1.5 µM | 6.3 µg/mL | 2.5 | 16.3 ± 2.5 µM | 8.6 µg/mL | 1.8 | 30 µM | 101 to 102 °C |
| Cc1ccc(C2[C@@H](C(=O)c3c[nH]c4ccccc34)[C@]3(C(=O)Nc4ccccc43)N3CCC[C@@H]23)cc1 (stereo partly drawn) [4b, (2′R,3S,7a′S)-2′-(1H-Indole-3-carbonyl)-1′-(p-tolyl)-1′,2′,5′,6′,7′,7a′-hexahydrospiro[indoline-3,3′-pyrrolizin]-2-one] |  |  |  |  |  |  | 21 ± 2 µM | 9.7 µg/mL | 1.2 | 11.8 ± 2 µM | 5.4 µg/mL | 2.2 | 16.3 ± 2 µM | 7.5 µg/mL | 1.6 | 26 µM | 174 to 176 °C |
| Cc1cccc(C2[C@@H](C(=O)c3c[nH]c4ccccc34)[C@]3(C(=O)Nc4ccccc43)N3CCC[C@@H]23)c1 (stereo partly drawn) [4i, (2′R,3S,7a′S)-2′-(1H-Indole-3-carbonyl)-1′-(m-tolyl)-1′,2′,5′,6′,7′,7a′-hexahydrospiro[indoline-3,3′-pyrrolizin]-2-one] |  |  |  |  |  |  | 7 ± 0.2 µM | 3.2 µg/mL | 2.1 | 7 ± 0.4 µM | 3.2 µg/mL | 2.1 | 7 ± 0.6 µM | 3.2 µg/mL |  | 15 µM | 141 to 143 °C |
| O=C(c1c[nH]c2ccccc12)[C@@H]1C(c2cccc(F)c2)[C@@H]2CCCN2[C@@]12C(=O)Nc1ccccc12 (stereo partly drawn) [4h, (2′R,3S,7a′S)-1′-(3-Fluorophenyl)-2′-(1H-indole-3-carbonyl)-1′,2′,5′,6′,7′,7a′-hexahydrospiro[indoline-3,3′-pyrrolizin]-2-one] |  |  |  |  |  |  | 15 ± 1.4 µM | 7 µg/mL | 1.2 | 14 ± 0.22 µM | 6.5 µg/mL | 1.3 | 11.5 ± 11.5 µM | 5.4 µg/mL | 1.6 | 18 µM | 149 to 151 °C |
